{"source": "patent US20040115822A1", "about": "“Methods of measuring the dissolution rate of an analyte in a non-aqueous liquid composition” (priority 2002, published 2004)", "test": "Solubility of CCFA as a function of pH", "type": "physicochemical", "settings": "below pH 5", "from_the_text": "In this example, CCFA was employed as the analyte. The solubility of CCFA varies as a function of pH.", "data": [{"smiles": "CO/N=C(\\C(=O)N[C@@H]1C(=O)N2C(C(=O)O)=C(CSC(=O)c3ccco3)CS[C@H]12)c1csc(N)n1", "note": "[CCFA, ceftiofur crystalline free acid]", "values": [{"measurement": "solubility of CCFA", "value": "relatively insoluble"}]}]}
